Key:
Format in all cases: in vitro ADME
[1] = system: P-glycoprotein (human MDR1); assay: Permeability and efflux in vitro in MDCK-MDR1 cell line; conditions: dog, MDCK-MDR1 cells, in absence of GF120918
Procedure: (§1) Intrinsic clearance (CLint). CLint was determined in rat and human liver microsomes. Incubations were performed at 37° C., at a concentration of 1 μM of compound, and a microsomal protein concentration of 1 mg/mL. Serial samples were removed at intervals of up to 60 min and analyzed for the concentration of compound to determine its intrinsic clearance rate. Compound was incubated in rat and human hepatocytes (10^6 cells/mL) at 1 μM for 0, 10, 20, 40, 60 and 120 min. Serial samples were removed at intervals of up to 120 min and analyzed for the concentration of compound to determine its intrinsic clearance rate. Permeability and Efflux in vitro. The in vitro permeability and potential to be transported by P-glycoprotein (P-gp) was determined using an MDCK cell line transfected with human MDR1 (P-glycoprotein). […] Permeability in the A→B direction in absence and presence of GF120918 and in the B→A direction in absence of GF120918 was measured by monitoring the appearance of the test compound on the opposite side of the membrane using a specific LC-MS/MS method. The efflux ratio (B→*A-GF120918/A→B-GF120918) was calculated to determine whether the test compound was a P-gp substrate. […] Plasma stability is measured in rat and human plasma for 7 or 24 h at 37° C. […] Samples were analyzed by LC-MS/MS (without internal standard). […] Half-life (t1/2 in hours) is calculated from those data. […]

[2] = Intrinsic clearance in rat liver microsomes; conditions: 37° C., 1 μM compound, 1 mg/mL microsomal protein
Procedure: as §1

[3] = Intrinsic clearance in human liver microsomes; conditions: 37° C., 1 μM compound, 1 mg/mL microsomal protein
Procedure: as §1

Papp A→B [1]	efflux ratio ([1]; read-out: Efflux ratio B -> A/A -> B)	microsomal CLint at 1 μM [2]	microsomal CLint at 1 μM [3]	SMILES
8.22 ×10⁻⁶ cm/s	4.5	109 µL/min/mg	47 µL/min/mg	CCCC[C@H](CO)Nc1nc(NC(=O)OCC)nc2c(C)cccc12 [Compound 1, ethyl (R)-(4-((1-hydroxyhexan-2-yl)amino)-8-methylquinazolin-2-yl)carbamate]
		84 µL/min/mg		CCCC[C@H](COC(=O)C(C)C)Nc1nc(NC(=O)C(C)C)nc2c(C)cccc12 [Compound 2, (R)-2-((2-isobutyramido-8-methylquinazolin-4-yl)amino)hexyl isobutyrate]
